Experimental data: US5089424A, “Method and apparatus for heterogeneous chemiluminescence assay” (Abbott Laboratories, priority 1989, dated 1992)

Legend:
[1] = test system: Monoclonal anti-phenylcyclidine antibody; test: Ion-capture acridinium labeled chemiluminescence competitive binding immunoassay for phenylcyclidine (PCP) in urine; details: for Signal Counts: integrated for eight seconds, 0 ng/mL: 188329
Procedure: Monoclonal anti-phenylcyclidine antibody was labeled with acridinium sulfonamide using EDAC coupling procedures known in the art. It was kept in the same buffer used for the anti-core conjugate of Example 3.
80 μL of IMx Tris buffer solution followed by 80 μL Celquat™ L-200 solutions were dispensed on the glass fiber matrices of the disposable reaction tray. Solutions were dispensed using two FMI-RH pumps and controlled via a triac board by an Intel 310 Development System (Intel Inc., Sunnyvale, Calif.). The tray was moved on a linear track using a timing belt and a stepper motor. The stepper motor was controlled by a board employing components known in the art. After 4.8 minutes, 50 μL of calibrator (sample) was pipetted into the shallow reaction wells of a disposable reaction tray, using an automated pipettor. 50 μL of acridinium labeled anti-PCP antibodies was dispensed into each incubation well. The mixture was incubated for 9.6 minutes in a heated tunnel at 32° C. with the disposable device moving into the tunnel by the timing belt in steps at the rate of 0.8 inches per minute, the reaction tray being stationary for 36 seconds after each step for a reaction step to take place. After 9.6 minutes incubation on the moving timing belt, 50 μL a solution containing PCP-PGA capture reagent at a concentration of 1.9 mg PGA/mL was dispensed into the incubation well through a tip centered on the well. The capture reagent solution was dispensed by an FMI-RH pump and controlled by the 310 Development system through a triac interface board. The reaction mixture was further incubated for 9.6 minutes. The quaternary ammonium polymer-treated glass fiber matrices were rinsed with 100 μL of the IMx buffer before reaction mixture transfer.
As the disposable tray was positioned under the transfer device as described herein, the reaction mixture was transferred and washed from the shallow incubation well onto the pre-treated glass fiber matrix in the detection well. The disposable tray was moved on the timing belt to allow subsequent well pairs to be located under the transfer device and to affect transfer of the reaction mixture. The disposable device was then moved to a read position, where the chemiluminescence detection head of the present invention was lowered to mate with the surface feature on the first two wells on the disposable to create a light-tight seal. The retained and immobilized immune complex on the glass fiber matrix was triggered using 0.3% alkaline peroxide solution in 0.25M NaOH and the signal from each PMT/amplifier was controlled by a counter/timer board and each side was triggered with an independent pump. The photon counter signal was integrated for eight seconds.

anti-PCP antibody = test: Fluorescence polarization competitive binding assay in solution (TDx), fluorescein-labeled PCP analog; details: 0 ng/mL: 198
[2] = test system: Anti-phenylcyclidine antibodies; test: Ion-capture alkaline phosphatase labeled chemiluminescence competitive binding immunoassay for phenylcyclidine in urine; details: 0 ng/mL: 3526

In the case of `c1ccc(C2(N3CCCCC3)CCCCC2)cc1` [Phenylcyclidine, phenylcyclidine], the “% Inhibition” value ([1]; 25 ng/mL PCP in human urine) is reported as 73.3%, the “Signal Counts” value ([1]; 25 ng/mL PCP in human urine) is reported as 50347 counts and the “% Inhibition” value ([1]; 60 ng/mL PCP in human urine) is reported as 83.6%. For the same molecule, the “Signal Counts” value ([1]; 60 ng/mL PCP in human urine) was 30839 counts, the “% Inhibition” value ([1]; 120 ng/mL PCP in human urine) was 87.3% and the “Signal Counts” value ([1]; 120 ng/mL PCP in human urine) was 23977 counts. The “% Inhibition” value ([1]; 250 ng/mL PCP in human urine) was 89.2%, the “Signal Counts” value ([1]; 250 ng/mL PCP in human urine) was 20379 counts and the “% Inhibition” value ([1]; 500 ng/mL PCP in human urine) was 89.5%. The “Signal Counts” value ([1]; 500 ng/mL PCP in human urine) was 19759 counts, the “Net Polarization” value (anti-PCP antibody; Table 4, 25 ng/mL) was 173 ΔmP and the “Net Polarization” value (anti-PCP antibody; Table 4, 60 ng/mL) was 144 ΔmP. For the same molecule, the “Net Polarization” value (anti-PCP antibody; Table 4, 250 ng/mL) was 82 ΔmP, the “Net Polarization” value (anti-PCP antibody; Table 5, 25 ng/mL) was 173 and the “Net Polarization” value (anti-PCP antibody; Table 5, 60 ng/mL) was 144. The “Net Polarization” value (anti-PCP antibody; Table 5, 120 ng/mL) was 112, the “Net Polarization” value (anti-PCP antibody; Table 5, 250 ng/mL) was 82 and the “Net Polarization” value (anti-PCP antibody; Table 5, 500 ng/mL) was 65. The Chemiluminescence signal ([2]; 25 ng/mL phenylcyclidine in human urine) was 2162 counts/6 seconds, the Chemiluminescence signal ([2]; 60 ng/mL phenylcyclidine in human urine) was 1440 counts/6 seconds and the Chemiluminescence signal ([2]; 250 ng/mL phenylcyclidine in human urine) was 1016 counts/6 seconds.
